Source: US7528224B1, “Peptide for triggering an immune reaction against tumor cells” (Immatics Biotechnologies GmbH, priority 1999, dated 2009)
Ends that are not written are not given here.

What was measured:
[1] = tested on: cytotoxic T cells; test: Induction of cytotoxic T cells in vitro with peptide-pulsed dendritic cells; type: cell-based, human; conditions: dendritic cells incubated with 50 μg/ml synthetic peptide, autologous mononuclear cells
Experimental: As e.g. described by Brossart, P., et al., Cancer Res 58 (1998), pages 732 ff.; first of all, mononuclear cells of peripheral blood were isolated from buffy coat preparations of heparinized blood of three healthy donators by Ficoll/Paque (Gibco-BRL, Grand Island, N.Y.) density-gradient centrifugation. The cells were seeded in cell culture bowls in RP10 medium.
5×10^5 dendritic cells from 1.1 were incubated with 50 μg/ml synthetic peptide from 1.2 for two hours, washed, and incubated with 2.5×10^6 autologous, i.e. coming from the same donators, mononuclear cells of periphery blood in RP10 medium. Additionally to the control peptides and the potentially HLA-A2 binding peptides the dendritic cells were partly incubated with 50 μg/ml of a PAN-HLA-DR-binding peptide which represents a T helper epitope.
After seven days of cultivation, the cells were again stimulated by adding autologous, mononuclear cells of peripheral blood pre-incubated with the synthetic peptide from 1.2. On the first, third and fifth day, respectively, 1 ng/ml human recombinant IL-2 (Genzyme) was added. The cytokine IL-2 is necessary for the cultivation and reproduction of cytotoxic T cells. Altogether, stimulation was effected up to three times in an interval of a week.

[2] = tested on: T2 cells; test: 51Cr release cytotoxic T cell activity on peptide-pre-incubated T2 cells; type: cell-based, human; conditions: 4 h; for killing of T2 cells pre-treated with the same peptide by the cytotoxic T cells induced with the peptide: T2 cells pre-incubated with 50 μg/ml of exactly this peptide; for killing of T2 cells pre-treated with other peptides by the cytotoxic T cells induced with the peptide: T2 cells pre-incubated with other peptides
Experimental: T2 cells which are distinguished by the fact that they can generate HLA-A2, but cannot present peptides synthesized by themselves via this MHC class I molecules, were pre-incubated with 50 μg/ml of synthetic peptide from 1.2 for two hours and marked with [^51Cr]-sodium chromate in RP10 at 37° C. for one hour. In each case 10^4 of these cells were transferred into each of a well of a 96-well-plate. Cytotoxic T cells that were generated before according to 1.3 were added, so that, respectively, an end volume of 200 μl per well was reached. Subsequently, incubation took place for four hours at 37° C. If now the cytotoxic T cells kill the cells that were labeled with ^51Cr before, they lyse these cells, and the ^51Cr contained in the cells is released. At the end of the experiment in the cell supernatants taken off, the released radioactivity is determined by counting in a β-counter. In that way, a measure for the cytotoxic activity of T cells is obtained.

Sequence | induction of cytotoxic T cells in vitro by means of dendritic cells [1] | killing of T2 cells pre-treated with the same peptide by the cytotoxic T cells induced with the peptide [2] | killing of T2 cells pre-treated with other peptides by the cytotoxic T cells induced with the peptide [2]
STAPPVHNV [SEQ ID NO: 1] | able to induce cytotoxic T cells | able to specifically kill | not able to kill
LLLLTVLTV [SEQ ID NO: 2] | able to induce cytotoxic T cells | could kill only those cells which were pre-treated with the peptide with the sequence SEQ ID NO: 2 | behave in the same way
